Reference: the NIST ThermoML archive (doi:10.1016/j.tca.2006.04.001)

Settings: Liquid, Pycnometric method

CCCCCCCCCCCCCCCCCC [octadecane]
Settings	specific volume [m3/kg]
299.25 K	0.00129
301.35 K	0.001292
303.35 K	0.001295
305.45 K	0.001295
307.55 K	0.001298
309.55 K	0.001301
311.65 K	0.001301
313.65 K	0.001304
315.75 K	0.001308
317.75 K	0.001311
318.65 K	0.001318
319.85 K	0.001317
320.65 K	0.001319
323.55 K	0.001323
325.45 K	0.001324
328.35 K	0.00133
330.35 K	0.001331
333.25 K	0.001335
335.15 K	0.001337
338.05 K	0.001341
341.05 K	0.001345
342.95 K	0.001346
345.85 K	0.00135
347.85 K	0.001354
350.75 K	0.001357
352.65 K	0.00136
355.55 K	0.001363
357.55 K	0.001364
360.45 K	0.001368
362.35 K	0.001372
365.25 K	0.001375
367.25 K	0.001377
370.15 K	0.001382
372.05 K	0.001385
374.95 K	0.001388
376.95 K	0.001391
379.85 K	0.001395
381.75 K	0.001398
384.75 K	0.001402
386.65 K	0.001404
389.55 K	0.001409
391.55 K	0.001411
394.45 K	0.001416
396.35 K	0.001419
399.25 K	0.001423
401.25 K	0.001425
404.15 K	0.001429
406.05 K	0.001433
408.95 K	0.001437
410.95 K	0.00144
413.85 K	0.001444
415.75 K	0.001448
418.65 K	0.001451
420.65 K	0.001455
423.55 K	0.001459
425.45 K	0.001456
428.45 K	0.001464
430.35 K	0.001464
433.25 K	0.001474
435.25 K	0.001471
438.15 K	0.001482
440.05 K	0.001478
442.95 K	0.001488
444.95 K	0.001485
447.85 K	0.001496
449.75 K	0.001498
452.65 K	0.001502
454.65 K	0.001506
457.55 K	0.001512
459.45 K	0.001513
462.45 K	0.00152
464.35 K	0.001522
467.25 K	0.00153
469.15 K	0.001528
472.15 K	0.001538
474.05 K	0.001535
476.95 K	0.001546
478.95 K	0.001545
481.85 K	0.001557
483.75 K	0.001554
486.65 K	0.001564
488.65 K	0.001562
491.55 K	0.001573
493.45 K	0.001571
496.35 K	0.001577
498.35 K	0.001582
500.25 K	0.001587
503.15 K	0.001592
505.15 K	0.001595
508.05 K	0.001602
510.95 K	0.001609
512.95 K	0.00161
515.85 K	0.001619
518.75 K	0.001623
520.65 K	0.001628
523.55 K	0.001634
525.55 K	0.001639
527.45 K	0.001644
530.35 K	0.001649
533.25 K	0.001657
535.25 K	0.001659
538.15 K	0.001666
541.05 K	0.001675
543.05 K	0.001677
545.95 K	0.001685
548.85 K	0.001691
550.75 K	0.001697
553.65 K	0.001704
555.65 K	0.001706
558.55 K	0.001714
560.45 K	0.00172
563.45 K	0.00173
566.35 K	0.001737
568.25 K	0.001741
